Results taken from patent US20210000830A1, “CANCER TREATMENT METHOD USING Trk INHIBITOR AND KINASE INHIBITOR IN COMBINATION” (ONO PHARMACEUTICAL CO., LTD., priority 2017, published 2021).

Assays:
[1] = test system: KM12-AR (compound A resistant KM12 cell lines); test: Growth inhibition test in compound A resistant KM12 cell lines (KM12-AR); assay type: cell-based, human; conditions: KM12-AR cells; single treatment
Method: Pharmacological Experiment Example 5: Growth Inhibition Test in Compound a Resistant KM12 Cell Lines
Using KM12 as TPM3-NTRK1-positive human colon cancer cell lines, a strain resistant to the compound A was established. A DMEM (Life technologies, product number: 11965) containing a 10 vol % FBS and 1 vol % penicillin-streptomycin liquid was prepared as a culture medium. The thawed KM12 was suspended in the culture medium. At room temperature, 180 g was centrifuged for 3 minutes, the supernatant was removed by suction, and the cell sediment was then re-suspended in the culture medium, and a total amount of 50 mL was inoculated in a 225 cm^2 flask (Asahi Glass Co., Ltd.). […]
Then, every two or three days, the culture medium was replaced or subcultured. […] The cell sediment was suspended in the DMEM culture medium, a part of the cell suspension was then collected, and the number of viable cells was counted. […]
Using KM12-AR, an effect when the compound A and trametinib, selumetinib, palbociclib, gefitinib, erlotinib, afatinib, lapatinib, neratinib or canertinib were combined was evaluated. […]
On the day when the compound was treated, 10 mM of each compound (DMSO solution) was serially diluted with DMSO to prepare a diluted solution. […] After the compound was added, the growth inhibition rate was calculated in the same method as in Pharmacological Experiment Example 3.

[2] = test system: TPM3-NTRK1-positive human colon cancer cell lines KM12; test: Growth inhibition test in TPM3-NTRK1 positive KM12 cell lines (CellTiter-Glo, combination index); assay type: cell-based; conditions: named kinase inhibitor used in combination with compound A; KM12 cells, 72 hours; CI<1 synergistic
Method: Pharmacological Experiment Example 3: Growth Inhibition Test in TPM3-NTRK1 Positive KM12 Cell Lines
Using KM12 as TPM3-NTRK1-positive human colon cancer cell lines, an effect when 1-{2-[4-(2-amino-5-chloro-3-pyridinyl)phenoxy]-5-pyrimidinyl}-3-[2-(methylsulfonyl)-5-(trifluoromethyl)phenyl]urea (hereinafter sometimes referred to as a compound A) and trametinib, selumetinib, palbociclib, afatinib or erlotinib were combined was evaluated. Cells were subcultured using a DMEM containing a 10 vol % inactivated fetal bovine serum (FBS) and 1 vol % penicillin-streptomycin liquid as a culture medium before they underwent the experiment.
One day before the compound was treated, cells were floated using 0.25% Trypsin-EDTA, and the cells were collected into a centrifuge tube from a culture flask. At room temperature, 180 g of the cells were centrifuged for 3 minutes, and the cell sediment was then suspended in a DMEM culture medium. A part of the cell suspension was collected, the number of cells was counted, and the cells were then suspended in the DMEM culture medium at a cell density of 3.75×10^4 cells/mL to prepare a cell suspension. The cell suspension was inoculated at 80 μL/well in a 96-well tissue culture plate (Asahi Glass Co., Ltd.), and left for 24 hours under 37° C., 5% CO2, and 95% air conditions.
On the day when the compound was treated, 10 mM of each compound (DMSO solution) was serially diluted with DMSO to prepare a diluted solution. The diluted solution of each compound and DMSO were diluted 100-fold in a culture medium to prepare a 10-fold concentration of the treatment solution of each compound and the medium solution. The compound A solution or medium solution prepared above was added at 10 μL/well to wells of a 96-well tissue culture plate in which cells were stationary-cultured for 24 hours. Then, in the same manner, the trametinib, selumetinib, palbociclib, afatinib or erlotinib solution or the medium solution was added at 10 μL/well to wells of the 96-well tissue culture plate. […]
After the stationary culture was completed, a luminescent signal (relative luminescent unit, RLU) of each well was measured by a microplate reader using a CellTiter-Glo Luminescent Cell Viability Assay kit (Promega, G7571). An average value of RLUs of 3 wells of a medium group (a group treated with a medium solution having a compound concentration of zero (0)) was calculated, and a growth inhibition rate in each well was calculated by the following mathematical formula. […]
In order to analyze the combined effect, using a fluorescence intensity, the effective dose (ED)50, ED75, ED90 and ED95 were calculated, and a combination index (CI) described in Advances in enzyme regulation, vol. 22, 1984, pp. 27-55 was calculated for analysis. […]

[3] = test system: ETV6-NTRK3 positive human leukemia cell lines IMS-M2; test: Growth inhibition experiment in ETV6-NTRK3 positive IMS-M2 cell lines (combination index); assay type: cell-based; conditions: named kinase inhibitor used in combination with compound A; IMS-M2 cells, 72 hours; CI<1 synergistic
Method: Cells were subcultured using an RPMI culture medium containing a 10 vol % FBS and 1 vol % penicillin-streptomycin liquid before they underwent the experiment.
On the day when the compound was treated, cells were collected from a culture flask into a centrifuge tube. At room temperature, 300 g of cells were centrifuged for 3 minutes, and the cell sediment was then suspended in the RPMI culture medium.
The diluted solution of each compound and DMSO were diluted 100-fold in a culture medium to prepare a 10-fold concentration of the treatment solution of each compound and the medium solution.

| SMILES | growth inhibitory effect, treated alone [1] | CI (median value) [2] | CI (median value) [3] |
| --- | --- | --- | --- |
| CS(=O)(=O)c1ccc(C(F)(F)F)cc1NC(=O)Nc1cnc(Oc2ccc(-c3cc(Cl)cnc3N)cc2)nc1 [1-{2-[4-(2-amino-5-chloro-3-pyridinyl)phenoxy]-5-pyrimidinyl}-3-[2-(methylsulfonyl)-5-(trifluoromethyl)phenyl]urea] | no growth inhibitory effect was observed | – | – |
| CN(C)C/C=C/C(=O)Nc1cc2c(Nc3ccc(F)c(Cl)c3)ncnc2cc1O[C@H]1CCOC1 [Afatinib, afatinib] | – | 0.861 | 0.869 |
| CC(=O)c1c(C)c2cnc(Nc3ccc(N4CCNCC4)cn3)nc2n(C2CCCC2)c1=O [Palbociclib, palbociclib] | – | 0.660 | 0.719 |
| Cn1cnc2c(F)c(Nc3ccc(Br)cc3Cl)c(C(=O)NOCCO)cc21 [Selumetinib, selumetinib] | – | 0.674 | 0.549 |
| CC(=O)Nc1cccc(-n2c(=O)n(C3CC3)c(=O)c3c(Nc4ccc(I)cc4F)n(C)c(=O)c(C)c32)c1 [Trametinib, trametinib] | – | 0.705 | 0.652 |
